The numbers were not newly measured in patent publication US8795652B1, “Methods and compositions to treat myocardial conditions” (Abbott Cardiovascular Systems Inc., priority 2003, dated 2014), which cites them from elsewhere.

Structures are written as SMILES.

In the case of `FC1(F)C(F)(F)C(F)(F)C2(F)C(F)(F)C(F)(F)C(F)(F)C(F)(F)C2(F)C1(F)F` (stereo not shown) [FDC, Perfluorodecalin], the “O2 solubility at 37° C.” value is on record as 45 V %.
As for `FC(F)(F)C(F)(F)C(F)(F)C(F)(F)CCC(F)(F)C(F)(F)C(F)(F)C(F)(F)F` [F-44E, 1,2-bis(perfluorobutyl)ethane], the “O2 solubility at 37° C.” value was 50 V %.
`CCCCC[C@H](O)/C=C/[C@H]1[C@H](O)CC(=O)[C@@H]1C/C=C\CCCC(=O)O` [PGE2, prostaglandin E2]: in the series on ductus arteriosus (four neonates, infused prior to and during surgery), the arterial oxygen saturation entry is “immediate and persistent rise”. The side effects result in the series on ductus arteriosus (in vivo) is on record as “No major side effects occurred, except for pyrexia in two infants”.
